# Laboratory results reported in ChEMBL document CHEMBL3507680, “University of Dundee, Gates Library screen for HepG2 cell viability”.
# Experiment: Human HepG2 cell viability assay in 384 well format
# Format: toxicity, cell-based
# Set-up: dose 125 nL, time 70.5 hour; cytotoxicity at 70.5 h: concentration not given beside the values
# Settings: HepG2 cells, read-out: Inhibition
row,SMILES,cytotoxicity at 70.5 h
1,Cc1csc(Nc2cc(C3CN(C(C)C)C3)nc(C)n2)n1,-3.73%
2,CN(C)C(=O)C1CN(c2ncccn2)CCN1C (configuration not stated),-1.97%
3,COc1ccc(N2CCNC(C(N)=O)C2)cc1 (configuration not stated),18.6%
4,O=C(CN1CCCCCC1)N1CCc2nnc(C3CCCNC3)n2CC1 (configuration not stated),16%
5,Cn1ccc(C(=O)N2CCC(c3cc(CCO)n(C)n3)C2)n1 (configuration not stated),-5.56%
6,Cc1cc(C)nc(N(C)CCn2ccnc2C)n1,-2.15%
7,CNc1ncccc1CN1CCN(C)CC(C(N)=O)C1 (configuration not stated),25.3%
8,Cc1cc(N2CCN(C(=O)[C@@H]3C[C@@H]4C=C[C@H]3C4)CC2)nc2ccccc12,-4.89%
9,Cc1nccc(N2CCN(C3CCOCC3)CC(C(=O)N(C)C)C2)n1 (configuration not stated),-13.5%
10,Cc1cc(Cc2ccc(F)cc2)cc(C2CCCNC2)n1 (configuration not stated),16.9%
11,Cn1cc(CN2CCCCC2c2ccc(-c3cccc(Cl)c3)nc2)cn1 (configuration not stated),-4.26%
12,Cc1ncsc1C(=O)N1CCC(c2ccc3c(NC(C)C)n[nH]c3n2)C1 (configuration not stated),-15.9%
13,Cc1cc(N2CCN(C3CCOCC3)CC(C(=O)N(C)C)C2)ncn1 (configuration not stated),-6.48%
14,CNC(=O)C1CN(C(C)C)CCN1c1nc(C)cc(C)n1 (configuration not stated),-10.7%
15,c1cnc2c(CN3CCCCC3c3ccncn3)cnn2c1 (configuration not stated),-8.22%
16,Cc1ccc(CC2COCCN(S(C)(=O)=O)C2)nc1 (configuration not stated),12.3%
17,CN1CCN(c2ncccn2)CC(C(=O)N(C)C)C1 (configuration not stated),-5.5%
18,CN(C)C(=O)C1CN(c2ccncn2)CCN(C2CCOCC2)C1 (configuration not stated),12.4%
19,CNc1ncccc1CN1CCN(C(C)=O)CC(C(N)=O)C1 (configuration not stated),-4.74%
20,COCC(=O)N1CCC(C)(c2cc(O)[nH]n2)CC1,0.0821%
21,CC(C)C[C@H](N)COc1cccc(F)c1Oc1ccc(Cl)cc1,26.2%
22,Cc1ccc(Oc2c(F)cccc2OC[C@@H](N)CC(C)C)cc1,23.8%
23,O=C(Nc1cc(CCC2CCN(CCO)CC2)ccn1)c1ccccn1,45.9%
24,CNC(=O)c1sc2ccccc2c1CC1CCCN1Cc1cnc(C)s1 (configuration not stated),-10.5%

row,SMILES,cytotoxicity at 70.5 h
1,CCCC(=O)N1CCCC(C(=O)c2cnn(-c3ccc(F)cc3)c2N)C1 (configuration not stated),-4.03%
2,Cc1cc(C)nc(N2CCOC(c3cc(CCO)[nH]n3)C2)n1 (configuration not stated),-8.46%
3,Cc1nc(NCc2nonc2C)cc(C(C)Cn2nc(C)c(C)c2C)n1 (configuration not stated),-7.72%
4,Cc1nc(NCc2ccccc2)cc(C(C)Cn2nc(C)c(C)c2C)n1 (configuration not stated),3.51%
5,CCCn1nc(C)c(C(=O)N(C)[C@@H]2CC[C@@H](N3CCCC3)[C@@H]2O)c1C,-5.14%
6,NC(=O)C1(c2cnccn2)CCCN1C(=O)Cc1ccsc1 (configuration not stated),-5.34%
7,Cc1nc2ccc(Cl)cn2c1CN1CCN(S(=O)(=O)N2CCCC2)CC1,-4.72%
8,CN(C)c1cc(C2CCN(C(=O)c3cnn(C)c3)CC2)ccn1,-4.9%
9,c1cnc(C2CCCN(Cc3ccsc3)C2)cn1 (configuration not stated),-6.09%
10,CC(=O)NCc1cncc(C2CCCN2C2CCOCC2)n1 (configuration not stated),-5.7%
11,CC(=O)N1CCCC(c2nnc3n2CCN(C(=O)C2CCCCC2)C3)C1 (configuration not stated),-8.2%
12,CCn1c(C)nc2cc(NC(=O)C3CN(C(C)=O)C3)ccc21,-5.1%
13,Cc1ncc(-c2ccncc2)c(C2CCN(C(=O)c3ccno3)CC2)n1,-7.69%
14,CS(=O)(=O)c1cncnc1C1CCCN(C(=O)Nc2ccccc2F)C1 (configuration not stated),-11.6%
15,Nc1nc(N)c2c(n1)OC1(CCN(Cc3nccs3)C1)C2 (configuration not stated),-6.73%
16,Nc1nc(N)c2c(n1)OC1(COCCN(Cc3nccs3)C1)C2 (configuration not stated),-10.4%
17,O=C(O)c1ccc(=O)n(CC(c2ccc(F)cc2)N2CCCCCC2)c1 (configuration not stated),-7.77%
18,Cc1oc2c(c1C(=O)N1CC[C@H](O)[C@]3(CCCO3)C1)CCCC2,-5.7%
19,O=C(c1cncs1)N1CCOC(c2cc(CCO)[nH]n2)C1 (configuration not stated),-7.42%
20,CNC(=O)C1(CCCc2cnccn2)CCN1CCc1ccccc1 (configuration not stated),-2.58%
21,Cc1cc(C(=O)N(C)C)nc(C2(C)CCCN2c2ccccc2)n1 (configuration not stated),-2.68%
22,CN(C)C(=O)C1(c2cnccn2)CCCN1C(=O)Cc1ccsc1 (configuration not stated),-5.5%
23,Cc1nc(NCCO)cc(C(C)Cn2nc(C)c(C)c2C)n1 (configuration not stated),-3.69%
24,CN(C)C(=O)C1(c2cnccn2)CCCN1C(=O)Cc1ccccc1 (configuration not stated),-5.41%

row,SMILES,cytotoxicity at 70.5 h
1,Cn1nccc1C(=O)N1CCC(c2nnsc2S(C)(=O)=O)CC1,-5.74%
2,O=C(CN1CCC2(CC1)NC(=O)c1cc(Br)ccc1N2)NC1CC1,-1.52%
3,O=C1NC2(CCCN(C(=O)CCn3cncn3)C2)Oc2ccccc21 (configuration not stated),-4.04%
4,COc1ccc(C(C)NCc2scnc2C)cc1Cn1cccn1 (configuration not stated),0.409%
5,O=C(c1cc(Cl)c[nH]1)N(CCCO)Cc1cccnc1,-8.59%
6,Cc1cc(CC(=O)N2CCc3cc(Br)sc3C2)n[nH]1,12.5%
7,CC(Cn1cccn1)NCc1cccc(C#N)c1 (configuration not stated),-3.1%
8,COCC(=O)Nc1ccnc(OCCN(C)C)c1,4.63%
9,CCOc1ccc(N(CCC#N)C(=O)c2ccnc(SC)c2)cc1,9.66%
10,O=S(=O)(Nc1ccc(N2CCOCC2)cc1)c1cccc(F)c1,-1.37%
11,NC(=O)CN(CC(N)=O)Cc1cccc(Oc2ccccc2)c1,7.82%
12,Cc1csc(N2CCCN(C(=O)c3nccnc3N)CC2)n1,-0.698%
13,COc1cc(CNc2cnn(C(C)(C)C)c(=O)c2Cl)ccn1,1.57%
14,CCC(=O)N(CC(N)=O)Cc1cccc(Oc2ccccc2)c1,0.0156%
15,COC(C)C(=O)N(CC(N)=O)Cc1cccc(Oc2ccccc2)c1 (configuration not stated),-2.39%
16,Cc1ccc(C(C)NC(=O)N2CCN(C(=O)CC(F)(F)F)CC2)o1 (configuration not stated),-3.77%
17,Cc1cnn(CC2CCN(CC(O)c3ccccc3)CC2)c1 (configuration not stated),13.9%
18,Cc1cnn(CC2CCN(CC(O)COc3ccccc3)CC2)c1 (configuration not stated),4.78%
19,Cc1cnn(CC2CCN(CC(O)c3ccc(F)cc3)CC2)c1 (configuration not stated),-0.648%
20,Cc1cnn(CC2CCN(CC(O)c3ccccc3Cl)CC2)c1 (configuration not stated),-3.1%
21,CCS(=O)(=O)NCCNc1c(C#N)cnc2c(F)cc(F)cc12,-0.0012%
22,CN(C)C(=O)c1cccc(NC(=O)Cc2cc(F)ccc2F)n1,1.76%
23,N#CCCCS(=O)(=O)NC(=O)c1ccccc1F,-0.732%
24,CCc1ccccc1C(=O)NS(=O)(=O)CCCC#N,10.5%

row,SMILES,cytotoxicity at 70.5 h
1,CCC(CC)(CNC(C)=O)NC(C)c1ccccc1 (configuration not stated),3%
2,CCC(CC)(CN)NC(C)c1ccccc1 (configuration not stated),-7.08%
3,CCOc1cccnc1C(=O)N1CCCN(c2nc(C)cs2)CC1,-3.42%
4,COc1cc(CNC(C)c2nnc3n2CCC3)cc(OC)c1 (configuration not stated),-9.55%
5,CCCN1CCN(C(=O)c2cccnc2)CC1,-14.6%
6,CC(C)C(NC(=O)c1nc(N2CCOCC2)ncc1Cl)c1cccs1 (configuration not stated),-9.67%
7,CC(C)C(NC(=O)c1ccc(N2CCOCC2)nc1)c1cccs1 (configuration not stated),-9.4%
8,O=C(Nc1c(N2CCCC2)cccc1N1CCCC1)c1cnccn1,-14.4%
9,O=C(CCn1cncn1)NCC1CCS(=O)(=O)C1 (configuration not stated),-12.4%
10,CC(Sc1nncn1C)C(=O)NCCCOc1ccc(F)cc1 (configuration not stated),-22.5%
11,N#Cc1ccccc1OCCN1CCCCC1C(=O)N1CCOCC1 (configuration not stated),7.77%
12,O=C1OCCN1CCSc1nnnn1CC(F)(F)F,-5.39%
13,CCCNC(=O)C[S+]([O-])Cc1csc(C2CCCCC2)n1 (configuration not stated),-10.9%
14,CC(C)c1nc2n(n1)CC(Nc1ncnc3c1CCC3)CC2 (configuration not stated),-13.9%
15,CCN(CC)c1ncc(Cl)c(C(=O)NC2CCc3nccn3C2)n1 (configuration not stated),-13.5%
16,Cn1c(CO)cnc1SC(C(N)=O)c1ccccc1 (configuration not stated),-15.2%
17,Cn1c(CO)cnc1SC(C(=O)NC1CC1)c1ccccc1 (configuration not stated),-8.64%
18,O=C(NCc1ccc(CN2CCCC2)cc1)NC1(CO)CCCC1,2.2%
19,CCN(CC)c1ncc(Cl)c(C(=O)NC2CC2)n1,-0.0542%
20,CCC(Sc1ncc(CO)n1C)c1ccccc1 (configuration not stated),-10%
21,COc1ccc(N(C)C(=O)C2CN(C)CCO2)cc1Cl (configuration not stated),8.7%
22,CN1CCOC(C(=O)N(C)c2ccc3c(c2)CCO3)C1 (configuration not stated),-18.1%
23,CN(C)c1cccc(C(=O)N2CCCc3cc(OC(F)(F)F)ccc32)c1,-9.8%
24,CCCOc1ccc(CN)c(OC(F)F)c1,-3.13%

row,SMILES,cytotoxicity at 70.5 h
1,COc1ccnc(N2CCC(OCCN3CCCCC3)C2)n1 (configuration not stated),-2.49%
2,Cc1nnc(CN2CCCCC2c2nc(-c3ccccc3)no2)s1 (configuration not stated),-8.42%
3,CN(C)c1ccc(C(=O)N2CCCc3cc(OC(F)(F)F)ccc32)cn1,-5.84%
4,CCCN1CCCN(C(=O)c2ccc(Oc3cccnc3)cc2)CC1,-8.42%
5,O=C(CCS(=O)(=O)C1CCCC1)N1CCCC(n2ccnc2)C1 (configuration not stated),6.79%
6,CC(C)(C)C(O)CN1CCN(Cc2cccc(C#N)c2)CC1 (configuration not stated),14.7%
7,CC(C)S(=O)(=O)CC(=O)N1CCCC(n2ccnc2)C1 (configuration not stated),-0.47%
8,Cn1cc(C(=O)N2CCN(c3ccc(F)cc3)CC2)ccc1=O,2.77%
9,CC(C)(C)C(O)CN1CCN(Cc2ccc(C#N)cc2)CC1 (configuration not stated),-6.98%
10,CCCc1cc(C(=O)NC(c2ccccc2)c2n[nH]c(C)n2)[nH]n1 (configuration not stated),-7.51%
11,CCC(=O)N1CCN(C(=O)NCc2c(C)cc(C)cc2C)CC1,-11.6%
12,NC(=O)Nc1cc(F)ccc1SCC(F)F,-8.84%
13,CCC(CO)NC(=O)Nc1cc(F)ccc1SCC(F)F (configuration not stated),-11.1%
14,CN(c1cccnc1N1CCCC1)S(=O)(=O)c1cccnc1,3.33%
15,Cc1cnn(-c2ccc(S(=O)(=O)N(C)CC(C)(CO)CO)cc2F)c1,17.1%
16,COCCNC(=O)CCNc1ccc(Cl)cn1,-6.53%
17,COc1cccc([S+]([O-])CC(=O)NCc2cc(F)cc(F)c2)c1 (configuration not stated),-1.69%
18,CNC(=O)C1CN(c2ccc(F)cc2)CCN1 (configuration not stated),-1.89%
19,Cc1cc(N2CCN(Cc3cn(C)nc3C)CC2)cc(C2CCNC2)n1 (configuration not stated),-5.44%
20,COc1cc2c(cc1CNC(Cc1cccs1)c1nccs1)OCCO2 (configuration not stated),-3.19%
21,c1coc(CN2CCC(c3ccc4c(c3)OCO4)CC2)c1,-3.77%
